In patent US5204311A, “Ethanediimidic acid bis[(arylalkylidene)hydrazide] color-formers” (Minnesota Mining and Manufacturing Company, priority 1991, dated 1993):

What was measured:
[1] = Color (Hunter coordinates) of Ni complex, swabbed on Ni-coated receptor (CF) sheet; type: physicochemical; set-up: key to Hunter coordinate a / Hunter Coordinates a: Hunter a: +a red, -a green; key to Hunter coordinate b / Hunter Coordinates b: Hunter b: +b yellow, -b blue; conditions: for Chroma: C=(a^2 +b^2)^1/2; for Chroma / Image Color / Hunter Coordinates L / Hunter Coordinates a / Hunter Coordinates b: Ni(II) complex; for Chroma / Image Color: swab concn. 1% (Table 2); for Hunter Coordinates L / Hunter Coordinates a / Hunter Coordinates b: swab concn. 1%, 45°/0° reflectance, illuminant C (Table 2)
Method: In general, the colors of the complexes, as listed in Table 2 and Experiments 4, 6, and 7 below, were determined by preparing a 1% solution of the color-former or mixture of color-formers in an appropriate solvent. Unless otherwise indicated, the solvent was composed of a mixture of tributyl phosphate (26.5%), diethyl phthalate (17.6%), and cyclohexane (55.9%). The images were formed by applying two stripes of the solution to a substrate coated with a Ni^2+ coated receptor sheet using a cotton tipped applicator swab. Rapid and complete development of the image was achieved by passing the sheet through a hot shoe adjusted to 102° C., making a revolution every 10 seconds. The visually observed colors were measured and recorded.
One method of color measurement is to determine the color's position in color space. One color space system is the Hunter System; see F. W. Billmeyer, Jr., and M. Saltzman, Principles of Color Technology; John Wiley & Sons; New York, N.Y.; Ch. 2 & 3, 1981. In this system three mutually perpendicular axes (L, a, and b) are needed to define a color. "L" (+z axis) represents the lightness or darkness of the image; "a" (x axis) represents the amount of red or green (+a is red, -a is green); and "b" (y axis) represents the amount of yellow or blue (+b is yellow, -b is blue). By measuring a material's L, a, and b values, the color of one sample can be compared with that of other samples. Another value used in the Hunter System is Chroma (C). Chroma is defined by the equation [C=(a^2 +b^2)^1/2 ] and represents the distance of the image coordinates from the origin. The greater the Chroma, the more intense the image. Chroma is used to compare images cf the same hue. Because the color of a sample is also dependent upon the color temperature of the illuminating source, the angle at which the sample is illuminated, the angle at which the illumination is reflected, and the angle of the retina illuminated, these all need to be specified. Many instruments have been developed to record these values. One such instrument is the HunterLab LabScan II. This instrument is capable of automatically determining the L, a, and b values for a given sample, and was used for the following examples.
The L, a, and b color coordinates of the more uniform stripe were measured for 45°/0° reflectance on a HunterLab LabScan II, secondary observer, using illuminant C. The observed (image) color and the Hunter coordinates for Ni^2+ complexes of the yellow color-formers of this invention are given in Table 2.
A 1% solution of the condensation product in the encapsulation fill mix was swabbed onto a carbonless paper CF sheet (sold by the 3M Co. St. Paul, Minn.) with a cotton swab. The reflectance spectra had Hunter coordinates of: […]

[2] = Solubility in capsule fill solvents; type: physicochemical; conditions: for Dye Solubility: 4320 min
Method: The encapsulation process requires the color-forming ligand be dissolved in a solvent or mixed solvents, because of the nature of the procedure. Formation of a microcapsule shell as by condensation of urea or melamine with an aldehyde such as formaldehyde or mixtures of aldehydes to form the capsule shell is carried out in an acidic aqueous medium and the color-former solution must be insoluble and unreactive to these reagents for the encapsulation to proceed. Solvents commonly used include tributyl phosphate, diethyl phthalate, and cyclohexane. […] As mentioned above, solubility of yellow color-formers exemplified by structure I in nonaqueous solvents such as those used in the encapsulation process may be increased by substituting alkyl, aryl, aralkyl, alkenyl, or such groups for the hydrogens on the various positions available in the structure I above.
(§1) This color observed on the CF sheet was yellow. […] Solubility in a solvent blend of tributyl phosphate, diethyl phthalate and cyclohexane (capsule solvents for preparing carbonless copy-paper) was >9% by weight. Thus the ligand is eminently suitable for encapsulation. The ligand is not volatile at 71 ° C. overnight.
Solubility in a solvent blend of tributyl phosphate, diethyl phthalate and cyclohexane (capsule solvents for preparing carbonless copy-paper) was 3% by weight. Thus the ligand is eminently suitable for encapsulation. The ligand is not volatile at 71 ° C. overnight.
*THE SOLUBILITY WAS DEEMED PREFERABLE IF IT WAS GREATER THAN 2% IN THE
FILL MIX AT ROOM TEMPERATURE FOR 3 DAYS. THE FILL MIX COMPRISED
TRIBUTYLPHOSPHATE (26.5%); DIETHYLPHTHALATE (17.6%); AND CYCLOHEXANE

[3] = Imaging of CB sheet with encapsulated color-former on Ni-coated CF sheet; type: physicochemical; conditions: carbonless paper capsules
Method: A precondensate solution was prepared comprising 192 g of formalin, 0.63 g of potassium tetraborate, 72 g of urea, and 328 g of soft water. The formalin was 37% formaldehyde and was added to a 1-liter flask equipped with a stirrer and heating mantle. The potassium tetraborate and urea were then added, and the mixture was heated to 70° C. The reaction was maintained at that temperature for 2.5-3.0 hr. The reaction mixture was then diluted with the water and allowed to cool. The precondensate solution, with about 24% solids, was then ready for use in the encapsulation process.
The precondensate and fill (ethanediimidic acid bis[hydrazide] and carrier or fill solvents) were combined to make capsules according to the following procedure. Sodium chloride (29.54 g) was added to the stirred precondensate solution and the temperature of the solution was adjusted to 20° C. The fill material (215 g) was added and full agitation was begun. After 5 minutes of stirring, 10% hydrochloric acid solution was added over 5 minutes in an amount such that the final pH of the reaction mixture was about 2.8. The reaction mixture was stirred for another 12 minutes. More of the 10% hydrochloric acid solution was added over a period of 12 minutes, in an amount such that the final pH of the solution was about […]. The reaction mixture was stirred at 20° C. for 1 hr, and then at 60° C. for 1-3 hr. The acidic solution was allowed to cool and adjusted to a pH of 7 by addition of concentrated ammonium hydroxide solution (28%). The capsule slurry could then be stored for later use.
The capsule slurry (10 g) was added to 65 g of a 1.5% aqueous sodium alginate solution. The mixture was applied to a coated paper using a bar coater with a 3 mil gap. The coating was allowed to dry at room temperature.
A 2% solution of the compound 1 in the capsule fill solvent of diethyl phthalate, tributyl phosphate, and cyclohexane was encapsulated by the procedure described in Experiment 5 above. A coating mixture of 10.0 g of capsule slurry, 2.5 g of Dow-620 butadiene-styrene latex, and 62.5 g of 1.5% sodium alginate slurry was coated onto paper by the draw down procedure described above.
A 7.5% solution comprising 5.45% N-(5-octanoylamido-2-metylpentyl)dithiooxamide/N-(5-octanoylamido-4-methylpentyl)dithiooxamide (G') mixture and 2.05% N,N'-di(5-octanoylamido-2-methylpentyl)dithiooxamide/N-(5-octanoylamido-2- methylpentyl)-N'-(5-octanoylamido-4-methylpentyl)dithiooxamide/N,N'-(5-octanoylamido-2-methylpentyl)dithiooxamide (G) mixture in the fill solvent mixture of diethyl phthalate, tributyl phosphate, and cyclohexanone was encapsulated by the procedure described above. A coating mixture of 10.0 g of capsule slurry, 2.5 g of Dow 620 styrene-butadiene latex, and 62.5 g of 1.5% sodium alginate solution was coated onto paper by the draw down procedure described in Experiment 5 above.
A blend was prepared of 10 g of the capsule slurry containing compound 1, with 10 g of capsule slurry containing 5.45% N-(5-octanoylamido-2-methylpentyl)dithiooxamide/N-(5-octanoylamido-4-methylpentyl)dithiooxamide (G') mixture and 2.05% N,N'-di(5-octanoylamido-2-methylpentyl)dithiooxamide/N-(5-octanoylamido-2- methylpentyl)-N'-(5-octanoylamido-4-methylpentyl)dithiooxamide/N,N'-di(5-octanoylamido-4-methylpentyl)dithiooxamide (G) mixture. […]

[4] = Stability in concentrated hydrochloric acid; type: physicochemical
[5] = Color formation with zinc salts (zinc rosinate); type: physicochemical
Method: as §1
This color observed on the CF sheet was yellow.

[6] = Volatility: transfer from simulated donor sheet to receptor sheet; type: physicochemical; conditions: 71 ° C. overnight
Text: The method utilized in the experiments to both define and evaluate the level of volatility was as follows. A single sheet piece of Grade #10 (20×12 cm) cheesecloth (AF & F., Item No. 588033, American Fiber and Finishing, Inc., Burlington, Mass.) was placed between a simulated donor sheet and a receptor sheet of a carbonless paper construction. The simulated donor sheet comprised a sheet of paper saturated with color-former of structure I, which was used to simulate a CB sheet with ruptured capsules. Pressure was then applied for 24 hours by placing 9 pounds of paper on top of the sheets, to simulate storage conditions of the paper packages. The formation of color on the receptor sheet, due to transfer of volatile color-former thereto, was used as an indication that the particular color-former was less than optimally desirable for carbonless paper constructions, i.e., was volatile. A compound was considered generally to be nonvolatile, within the meaning of the term as used herein to define the present invention and thus to define color-formers most acceptable for use in carbonless image transfer arrangements, if no color was formed after the simulated test was run for about 24 hours at 25° C. In some instances, if no color was formed after storage at room temperature (25° C.), successively higher temperatures were used, as for example 49° C., 60° C., and 71° C. […]

[7] = background art; cited from earlier work
[8] = 1% solution in encapsulation fill mix swabbed onto 3M CF sheet (Experiments 2, 3)

Structure (SMILES)	Chroma [1]	Image Color [1]	Hunter Coordinates L [1]	Hunter Coordinates a [1]	Hunter Coordinates b [1]	solubility in encapsulation / capsule solvents (in words) [2]	Dye Solubility [2]	color developed upon imaging [3]	Hunter coordinate L [1, 8]	Hunter coordinate a [1, 8]	Hunter coordinate b [1, 8]	color observed on the CF sheet ([1]; 1% solution swabbed (Experiments 2, 3))	Solubility in a solvent blend of tributyl phosphate, diethyl phthalate and cyclohexane [2]	stability in concentrated hydrochloric acid [4]	color formation when reacted with zinc rosinate [5]	volatility [6]	image color with metal [7]	Chroma (in words) ([1]; nickel complex, description)
NC(=NN=Cc1ccccc1O)C(N)=NN=Cc1ccccc1O [Compound 9, Ethanediimidic acid bis[(2-hydroxyphenylmethylene)hydrazide]]	40.7	Yellow	84.5	-9.7	39.5	too low in the solvent blend used in many carbonless paper capsules	< 2.0%	weak and often unacceptable										
C=CCc1cccc(C=NN=C(N)C(N)=NN=Cc2cccc(CC=C)c2O)c1O [Compound 16, ethanediimidic acid bis[(3-allylsalicylidene)hydrazide]]	41.6	Yellow	82.5	-6.6	41.0	good solubility in capsule solvents	> 3.0%		82.5	-6.64	41.0	yellow	3 % by weight	stable	does not form color	not volatile		
NC(=NN=Cc1cc(Br)ccc1O)C(N)=NN=Cc1cc(Br)ccc1O [Compound 3, Ethanediimidic acid bis[(2-hydroxy-5-bromophenylmethylene)hydrazide]]	41.1	Yellow	81.9	-7.5	40.5		< 2.0%											
COc1cccc(C=NN=C(N)C(N)=NN=Cc2cccc(OC)c2O)c1O [Compound 10, Ethanediimidic acid bis[(2-hydroxy-3-methoxyphenylmethylene)hydrazide]]	36.2	Yellow	86.4	-11.1	34.5		< 2.0%											
S=C(NCc1ccccc1)C(=S)NCc1ccccc1 [H, N,N'-di(benzyl)dithiooxamide]																	blue-purple	
NC(=NN=Cc1cccs1)C(N)=NN=Cc1cccs1 [Compound 13, Ethanediimidic acid bis[(2-thienylmethylene)hydrazide]]		Brown	72.6	11.2	13.9		< 2.0%											intermediate between that of aliphatic and the preferred o-substituted ligands
CCN(CC)c1ccc(C=NN=C(N)C(N)=NN=Cc2ccc(N(CC)CC)cc2O)c(O)c1 [Compound 5, Ethanediimidic acid bis[(2-hydroxy-4-diethylaminophenylmethylene)hydrazide]]	41.4	Yellow	80.9	-5.2	41.0		< 2.0%											
